Measured values from patent US9056858B2, “Indazole and pyrazolopyridine compounds as CCR1 receptor antagonists” (Boehringer Ingelheim International GmbH, priority 2009, dated 2015).
pIC50: −log10 of the molar value.

Molecular target: T1, CCR1 (Homo sapiens, UniProt P32246)
T1 construct: host or cells: Non-adherent cells
T1 sequence (P32246 1-355): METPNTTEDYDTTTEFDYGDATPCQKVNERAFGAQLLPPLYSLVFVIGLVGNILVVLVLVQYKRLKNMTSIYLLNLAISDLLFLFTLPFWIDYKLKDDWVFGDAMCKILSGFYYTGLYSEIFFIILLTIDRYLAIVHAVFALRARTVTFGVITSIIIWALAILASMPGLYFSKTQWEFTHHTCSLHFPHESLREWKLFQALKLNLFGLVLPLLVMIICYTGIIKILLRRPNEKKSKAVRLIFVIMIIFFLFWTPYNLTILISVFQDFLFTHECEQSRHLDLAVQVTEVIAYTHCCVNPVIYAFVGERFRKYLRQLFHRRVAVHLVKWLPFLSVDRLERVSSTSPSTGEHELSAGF
Test: functional cellular assay measuring calcium flux in CCR1 transfected cells (block of CCR1/MIP-1α interaction)
Type: cell-based
Details: cells stably expressing recombinant CCR1 and G-alpha-16, MIP-1alpha added at EC80
Protocol: Compounds are assessed for the ability to block the interaction of CCR1 and MIP-1α in a functional cellular assay measuring calcium flux in CCR1 transfected cells.
Non-adherent cells purchased from Chemicon Corporation (HTS005C), stably expressing recombinant CCR1 and G-alpha-16 are grown in RPMI 1640 medium (Mediatech 10-080-CM) supplemented with 10% FBS, 0.4 mg/mL Geneticin and penicillin/streptomycin. On the day of the assay, the cells are loaded with Calcium 4 dye (Molecular Devices R7448) with Probenecid (Invitrogen P346400) at 8E5 cells/mL for 1 hour at room temperature. After 1 hour, they are seeded in a 384-well tissue culture-treated plate at a density of 20,000 cells/well. Appropriately diluted test compound is added to the well to achieve a top concentration of 3,000 nM (diluted 4-fold with 10 doses total). The final concentration of DMSO is 1%. The buffer is HBSS (Invitrogen 14025) with 20 mM HEPES at pH 7.4. The cells incubate 30 minutes at 37 C and then 30 minutes at room temperature. The plates are transferred to the […] FDSS6000 where MIP-1alpha in 1% BSA is added at the EC80 final concentration. All plates must be read within 4 hours of the start of dye-loading. Wells +/− MIP-1alpha containing diluted DMSO instead of compound serve as the controls. Data are analyzed using Activity Base software.

COc1ccc(C2(NC(=O)c3cncc4c3cnn4-c3ccc(F)cc3)CCC2)cc1 [1-(4-Fluoro-phenyl)-1H-pyrazolo[3,4-c]pyridine-4-carboxylic acid [1-(4-methoxy-phenyl)-cyclobutyl]-amide]
pIC50: 7.29

COc1ccc(C2(NC(=O)c3cncc4c3cnn4-c3ccc(F)cc3)CC2)cc1 [1-(4-Fluoro-phenyl)-1H-pyrazolo[3,4-c]pyridine-4-carboxylic acid [1-(4-methoxy-phenyl)-cyclopropyl]-amide]
pIC50: 7.77

COc1ccnc(C2(NC(=O)c3cncc4c3cnn4-c3ccc(F)cc3)CC2)c1 [1-(4-Fluoro-phenyl)-1H-pyrazolo[3,4-c]pyridine-4-carboxylic acid [1-(4-methoxy-pyridin-2-yl)-cyclopropyl]-amide]
pIC50: 7.51

NCc1ccc(C2(NC(=O)c3cncc4c3cnn4-c3ccc(F)cc3)CC2)nc1 [1-(4-Fluoro-phenyl)-1H-pyrazolo[3,4-c]pyridine-4-carboxylic acid [1-(5-aminomethyl-pyridin-2-yl)-cyclopropyl]-amide]
pIC50: 6.15

O=C(NC1(c2ccc(Br)cn2)CC1)c1cncc2c1cnn2-c1ccc(F)cc1 [1-(4-Fluoro-phenyl)-1H-pyrazolo[3,4-c]pyridine-4-carboxylic acid [1-(5-bromo-pyridin-2-yl)-cyclopropyl]-amide]
pIC50: 8.05

O=C(NC1(c2ncc(Br)cn2)CC1)c1cncc2c1cnn2-c1ccc(F)cc1 [1-(4-Fluoro-phenyl)-1H-pyrazolo[3,4-c]pyridine-4-carboxylic acid [1-(5-bromo-pyrimidin-2-yl)-cyclopropyl]-amide]
pIC50: 7.35

O=C(NC1(c2noc(C3CC3)n2)CC1)c1cncc2c1cnn2-c1ccc(F)cc1 [1-(4-Fluoro-phenyl)-1H-pyrazolo[3,4-c]pyridine-4-carboxylic acid [1-(5-cyclopropyl-1,2,4-oxadiazol-3-yl)-cyclopropyl]-amide]
pIC50: 7.21

CS(=O)(=O)c1ccc(C2(NC(=O)c3cncc4c3cnn4-c3ccc(F)cc3)CC2)o1 [1-(4-Fluoro-phenyl)-1H-pyrazolo[3,4-c]pyridine-4-carboxylic acid [1-(5-methanesulfonyl-furan-2-yl)-cyclopropyl]-amide]
pIC50: 8.40

CS(=O)(=O)c1cnc(C2(NC(=O)c3cncc4c3cnn4-c3ccc(F)cc3)CC2)nc1 [1-(4-Fluoro-phenyl)-1H-pyrazolo[3,4-c]pyridine-4-carboxylic acid [1-(5-methanesulfonyl-pyrimidin-2-yl)-cyclopropyl]-amide]
pIC50: 7.85

O=C(NC1(c2ccc(Br)nc2)CC1)c1cncc2c1cnn2-c1ccc(F)cc1 [1-(4-Fluoro-phenyl)-1H-pyrazolo[3,4-c]pyridine-4-carboxylic acid [1-(6-bromo-pyridin-3-yl)-cyclopropyl]-amide]
pIC50: 7.72

CN(C)c1cccc(C2(NC(=O)c3cncc4c3cnn4-c3ccc(F)cc3)CC2)n1 [1-(4-Fluoro-phenyl)-1H-pyrazolo[3,4-c]pyridine-4-carboxylic acid [1-(6-dimethylamino-pyridin-2-yl)-cyclopropyl]-amide]
pIC50: 8.52

CS(=O)(=O)c1ccc(C2(NC(=O)c3cncc4c3cnn4-c3ccc(F)cc3)CC2)cn1 [1-(4-Fluoro-phenyl)-1H-pyrazolo[3,4-c]pyridine-4-carboxylic acid [1-(6-methanesulfonyl-pyridin-3-yl)-cyclopropyl]-amide]
pIC50: 8.15

CNc1ccc(C2(NC(=O)c3cncc4c3cnn4-c3ccc(F)cc3)CC2)cn1 [1-(4-Fluoro-phenyl)-1H-pyrazolo[3,4-c]pyridine-4-carboxylic acid [1-(6-methylamino-pyridin-3-yl)-cyclopropyl]-amide]
pIC50: 7.55

O=C(NC1(c2ccc(N3CCOCC3)nc2)CC1)c1cncc2c1cnn2-c1ccc(F)cc1 [1-(4-Fluoro-phenyl)-1H-pyrazolo[3,4-c]pyridine-4-carboxylic acid [1-(6-morpholin-4-yl-pyridin-3-yl)-cyclopropyl]-amide]
pIC50: 8.22

NS(=O)(=O)c1ccc(C2(NC(=O)c3cncc4c3cnn4-c3ccc(F)cc3)CC2)cn1 [1-(4-Fluoro-phenyl)-1H-pyrazolo[3,4-c]pyridine-4-carboxylic acid [1-(6-sulfamoyl-pyridin-3-yl)-cyclopropyl]-amide]
pIC50: 8.30

NC(=O)CNC(=O)c1cccc(C2(NC(=O)c3cncc4c3cnn4-c3ccc(F)cc3)CC2)c1 [1-(4-Fluoro-phenyl)-1H-pyrazolo[3,4-c]pyridine-4-carboxylic acid {1-[3-(carbamoylmethyl-carbamoyl)-phenyl]-cyclopropyl}-amide]
pIC50: 7.13

N#CCNC(=O)c1cccc(C2(NC(=O)c3cncc4c3cnn4-c3ccc(F)cc3)CC2)c1 [1-(4-Fluoro-phenyl)-1H-pyrazolo[3,4-c]pyridine-4-carboxylic acid {1-[3-(cyanomethyl-carbamoyl)-phenyl]-cyclopropyl}-amide]
pIC50: 7.46

CNC(=O)CNC(=O)c1cccc(C2(NC(=O)c3cncc4c3cnn4-c3ccc(F)cc3)CC2)c1 [1-(4-Fluoro-phenyl)-1H-pyrazolo[3,4-c]pyridine-4-carboxylic acid {1-[3-(methylcarbamoylmethyl-carbamoyl)-phenyl]-cyclopropyl}-amide]
pIC50: 7.11

CC(=O)N(C)c1ccc(C2(NC(=O)c3cncc4c3cnn4-c3ccc(F)cc3)CC2)cn1 [1-(4-Fluoro-phenyl)-1H-pyrazolo[3,4-c]pyridine-4-carboxylic acid {1-[6-(acetyl-methyl-amino)-pyridin-3-yl]-cyclopropyl}-amide]
pIC50: 7.70

CS(=O)(=O)c1cc(C2(NC(=O)c3cc(I)cc4c3cnn4-c3ccc(F)cc3)CC2)ccn1 [1-(4-Fluoro-phenyl)-6-iodo-1H-indazole-4-carboxylic acid [1-(2-methanesulfonyl-pyridin-4-yl)-cyclopropyl]-amide]
pIC50: 7.89

CS(=O)(=O)c1cc(C(=O)NC2(c3ccnc(S(C)(=O)=O)c3)CC2)c2cnn(-c3ccc(F)cc3)c2c1 [1-(4-Fluoro-phenyl)-6-methanesulfonyl-1H-indazole-4-carboxylic acid [1-(2-methanesulfonyl-pyridin-4-yl)-cyclopropyl]-amide]
pIC50: 8.15

COC(=O)C1(NC(=O)c2cccc(C3(NC(=O)c4cncc5c4cnn5-c4ccc(F)cc4)CC3)c2)CC1 [1-[3-(1-{[1-(4-Fluoro-phenyl)-1H-pyrazolo[3,4-c]pyridine-4-carbonyl]-amino}-cyclopropyl)-benzoylamino]-cyclopropanecarboxylic acid methyl ester]
pIC50: 7.01

COC(=O)c1cccc(C2(NC(=O)c3cncc4c3cnn4-c3ccc(F)cc3)CC2)c1 [3-(1-{[1-(4-Fluoro-phenyl)-1H-pyrazolo[3,4-c]pyridine-4-carbonyl]-amino}-cyclopropyl)-benzoic acid methyl ester]
pIC50: 7.96

O=C(O)c1cccc(C2(NC(=O)c3cncc4c3cnn4-c3ccc(F)cc3)CC2)c1 [3-(1-{[1-(4-Fluoro-phenyl)-1H-pyrazolo[3,4-c]pyridine-4-carbonyl]-amino}-cyclopropyl)-benzoic acid]
pIC50: 7.57

COC(=O)CCS(=O)(=O)c1cccc(C2(NC(=O)c3cncc4c3cnn4-c3ccc(F)cc3)CC2)c1 [3-[3-(1-{[1-(4-Fluoro-phenyl)-1H-pyrazolo[3,4-c]pyridine-4-carbonyl]-amino}-cyclopropyl)-benzenesulfonyl]-propionic acid methyl ester]
pIC50: 7.77

COC(=O)CCS(=O)(=O)c1ccc(C2(NC(=O)c3cncc4c3cnn4-c3ccc(F)cc3)CC2)cn1 [3-[5-(1-{[1-(4-Fluoro-phenyl)-1H-pyrazolo[3,4-c]pyridine-4-carbonyl]-amino}-cyclopropyl)-pyridine-2-sulfonyl]-propionic acid methyl ester]
pIC50: 8.00

O=C(O)c1ccc(C2(NC(=O)c3cncc4c3cnn4-c3ccc(F)cc3)CC2)cc1 [4-(1-{[1-(4-Fluoro-phenyl)-1H-pyrazolo[3,4-c]pyridine-4-carbonyl]-amino}-cyclopropyl)-benzoic acid]
pIC50: 7.16

CS(=O)(=O)c1cc(C2(NC(=O)c3cc(Br)cc4c3cnn4-c3ccc(F)cc3)CC2)ccn1 [6-Bromo-1-(4-fluoro-phenyl)-1H-indazole-4-carboxylic acid [1-(2-methanesulfonyl-pyridin-4-yl)-cyclopropyl]-amide]
pIC50: 8.70

CS(=O)(=O)c1cc(C2(NC(=O)c3cc(C#N)cc4c3cnn4-c3ccc(F)cc3)CC2)ccn1 [6-Cyano-1-(4-fluoro-phenyl)-1H-indazole-4-carboxylic acid [1-(2-methanesulfonyl-pyridin-4-yl)-cyclopropyl]-amide]
pIC50: 10.00

COC(=O)[C@H](C)NC(=O)c1cccc(C2(NC(=O)c3cncc4c3cnn4-c3ccc(F)cc3)CC2)c1 [(S)-2-[3-(1-{[1-(4-Fluoro-phenyl)-1H-pyrazolo[3,4-c]pyridine-4-carbonyl]-amino}-cyclopropyl)-benzoylamino]-propionic acid methyl ester]
pIC50: 7.10
